This is an account of results in ChEMBL document CHEMBL1148149, “Bufadienolide and spirostanol glycosides from the rhizomes of helleborusorientalis” (J Nat Prod, 2003).

≈ marks a conversion by molar mass, not a printed value. Some results are limits rather than exact numbers.

Assay type in all cases: functional, cell-based
The nature of assay [1]: Cytotoxicity against human HPC cells after 24 hrs by MTT assay. In general terms: Formazan colour is commonly taken as a measure of viable cells.
Assay [2] has as its system A-375. The assay is described as follows: Cytotoxicity against human A375 cells after 24 hrs by MTT assay. The conditions noted are these: A-375, 24 h.
Assay [3] deals with HepG2. The assay is described as follows: Cytotoxicity against human HepG2 cells after 24 hrs by MTT assay. The conditions noted are these: HepG2, 24 h.
Assay [4] deals with HSC-2. The experiment in a line: Cytotoxicity against human HSC2 cells after 24 hrs by MTT assay. The conditions noted are these: HSC-2, 24 h.

A word on the IC50: it is the point on the concentration scale where inhibition reaches its midpoint. A low value points to inhibition by little substance. For the compound `C[C@@H]1O[C@@H](O[C@H]2CC[C@]3(C=O)[C@H]4CC[C@]5(C)[C@@H](c6ccc(=O)oc6)[C@@H](O)C[C@]5(O)[C@@H]4CC[C@]3(O)C2)[C@H](O)[C@H](O)[C@H]1O`, the IC50 in assay [1] is 9.5 µg/mL (≈ 16.4 µM); in assay [2], 0.055 µg/mL (≈ 0.095 µM); in assay [3], 0.74 µg/mL (≈ 1.28 µM); in assay [4] it was 0.0085 µg/mL (≈ 0.0147 µM).
Taken in the same sequence, the figures for `C[C@@H]1O[C@@H](O[C@H]2CC[C@]3(C=O)[C@H]4CC[C@]5(C)[C@@H](c6ccc(=O)oc6)CC[C@]5(O)[C@@H]4CC[C@]3(O)C2)[C@H](O)[C@H](O)[C@H]1O` were 6.7 µg/mL (≈ 11.9 µM), 0.0063 µg/mL (≈ 0.0112 µM), 0.25 µg/mL (≈ 0.444 µM) and 0.0028 µg/mL (≈ 0.00498 µM).
Taken in the same sequence, the figures for `C[C@]12CC[C@H]3[C@@H](CC[C@]4(O)C[C@@H](O[C@@H]5O[C@H](CO)[C@@H](O)[C@H](O)[C@H]5O)CC[C@]34C=O)[C@@]1(O)CC[C@@H]2c1ccc(=O)oc1` were 0.082 µg/mL (≈ 0.142 µM), 0.0086 µg/mL (≈ 0.0149 µM), 0.23 µg/mL (≈ 0.397 µM) and 0.0029 µg/mL (≈ 0.00501 µM).
As for `C=C1CO[C@@]2(O[C@H]3C[C@H]4[C@@H]5CC=C6C[C@@H](O)C[C@@H](O[C@@H]7OC[C@H](O)[C@H](O[C@@H]8OC[C@@H](O)[C@H](O)[C@H]8O)[C@H]7O[C@@H]7O[C@@H](C)[C@H](OC(C)=O)[C@@H](O[C@@H]8OC[C@](O)(CO)[C@H]8O)[C@H]7O)[C@]6(C)[C@H]5CC[C@]4(C)[C@H]3[C@@H]2C)[C@@H](O)[C@H]1O`, half-maximal inhibition in assay [4] (IC50) required 86 µg/mL (≈ 82.3 µM).
Same read-out and setting: with `C=C1CO[C@@]2(O[C@H]3C[C@H]4[C@@H]5CC=C6C[C@@H](O)C[C@@H](O[C@@H]7OC[C@H](O)[C@H](O[C@@H]8OC[C@@H](O)[C@H](O)[C@H]8O)[C@H]7O[C@@H]7O[C@@H](C)[C@H](OC(C)=O)[C@@H](O[C@@H]8OC[C@](O)(CO)[C@H]8O)[C@H]7O)[C@]6(C)[C@H]5CC[C@]4(C)[C@H]3[C@@H]2C)[C@@H](O)C1` the figure was 27 µg/mL (≈ 26.2 µM); with `C=C1CO[C@@]2(O[C@H]3C[C@H]4[C@@H]5CC=C6C[C@@H](O)C[C@@H](O[C@@H]7OC[C@H](O)[C@H](O[C@@H]8OC[C@@H](O)[C@H](O)[C@H]8O)[C@H]7O[C@@H]7O[C@@H](C)[C@H](OC(C)=O)[C@@H](O[C@@H]8OC[C@](O)(CO)[C@H]8O)[C@H]7O)[C@]6(C)[C@H]5CC[C@]4(C)[C@H]3[C@@H]2COC(C)=O)[C@@H](O)[C@H]1O[C@@H]1O[C@H](C)[C@@H](O)[C@H](O)[C@H]1O`, > 200 µg/mL.
Same read-out and setting: with `C=C1CO[C@@]2(O[C@H]3C[C@H]4[C@@H]5CC=C6C[C@@H](O)C[C@@H](O[C@@H]7OC[C@H](O)[C@H](O[C@@H]8OC[C@@H](O)[C@H](O)[C@H]8O)[C@H]7O[C@@H]7O[C@@H](C)[C@H](OC(C)=O)[C@@H](O[C@@H]8OC[C@](O)(CO)[C@H]8O)[C@H]7O)[C@]6(C)[C@H]5CC[C@]4(C)[C@H]3[C@@H]2COC(C)=O)[C@@H](O)[C@H]1O[C@@H]1O[C@H](CO)[C@@H](O)[C@H](O)[C@H]1O` the figure was > 200 µg/mL; with `C=C1CO[C@@]2(O[C@H]3C[C@H]4[C@@H]5CC=C6C[C@@H](O)C[C@@H](O[C@@H]7OC[C@H](O)[C@H](O[C@@H]8OC[C@@H](O)[C@H](O)[C@H]8O)[C@H]7O[C@@H]7O[C@@H](C)[C@H](OC(C)=O)[C@@H](O[C@@H]8OC[C@](O)(CO)[C@H]8O)[C@H]7O)[C@]6(C)[C@H]5CC[C@]4(C)[C@H]3[C@@H]2COC(C)=O)[C@@H](O)[C@H]1O`, 184 µg/mL (≈ 167 µM).
Take `COc1cccc2c1C(=O)c1c(O)c3c(c(O)c1C2=O)C[C@@](O)(C(=O)CO)C[C@@H]3O[C@H]1C[C@H](N)[C@H](O)[C@H](C)O1` [DOXORUBICIN]: the IC50 in assay [1] is > 40 µg/mL; in assay [2] it was 1.8 µg/mL (≈ 3.31 µM); in assay [3], > 40 µg/mL; in assay [4] it was 2.5 µg/mL (≈ 4.6 µM).
